Key:
Assay type in all cases: in vivo, Arabidopsis thaliana
[1] = tested on: Arabidopsis seedlings; assay: Gene expression in the third leaf after transfer to Dex medium; conditions: 5 μM Dexamethasone in ½ MS medium, transfer at 9DAS
Method: At 9DAS, when the third leaf is fully proliferating, the mesh with seedlings was transferred to plates containing ½ MS medium with 5 μM Dexamethasone (Dex). For expression analysis and growth experiments, all seedlings were transferred to Dex, including the control lines, to account for the possible effects of Dex on growth or gene expression. […] Here, the non-treated plants will serve as a control for the Dex-induced plants of the same line. […] Leaf 3 was harvested from plants at 1, 2, 4 and 24 hours after transfer. Samples were obtained from three independent experiments and from multiple plates within the experiment. Whole seedlings were harvested rapidly in an excess of RNAlater solution (Ambion) and, after overnight storage at 4° C., dissected under a binocular microscope on a cooling plate with precision microscissors. Dissected leaves were transferred to a new tube, frozen in liquid nitrogen, and ground with a Retsch machine and 3-mm metal balls. RNA was extracted with TriZol (Invitrogen) and further purified with the RNEASY® Mini Kit (Qiagen). DNA digestion was done on-column with Rnase-free DNase I (Roche). […] Melting curves were analyzed to check primer specificity. […] Ct refers to the number of cycles at which SYBR Green fluorescence reaches an arbitrary value during the exponential phase of the cDNA amplification.

[2] = tested on: Arabidopsis seedlings; assay: Leaf growth of Arabidopsis seedlings in vitro after transfer to Dex medium; conditions: 5 μM Dexamethasone in ½ MS medium, transfer at 9DAS
Method: Seedlings were grown in vitro on half-strength Murashige and Skoog medium (Murashige and Skoog 1962) containing 1% sucrose and 6.5 g/L agar at 21° C. under a 16-hour day (110 μmol m^−2 s^−1) and 8-hour night regimen. The growth medium was overlaid with nylon mesh (Prosep, Zaventem, Belgium) of 20 μm pore size to facilitate transfer to induction medium. For expression analysis and growth experiments, 64 resp. 32 seeds were equally distributed on a 15-cm diameter petri dish. […] At 9DAS, when the third leaf is fully proliferating, the mesh with seedlings was transferred to plates containing ½ MS medium with 5 μM Dexamethasone (Dex). For expression analysis and growth experiments, all seedlings were transferred to Dex, including the control lines, to account for the possible effects of Dex on growth or gene expression. […] Here, the non-treated plants will serve as a control for the Dex-induced plants of the same line. […] Growth analysis was performed on the third true leaf harvested at different time points after transfer to Dex. After clearing with 70% ethanol, leaves were mounted in lactic acid on microscopic slides. […] Photographs of leaves and drawings were used to measure leaf area and cell size, respectively, using ImageJ v1.37o (NIH; on the World Wide Web at //rsb.info.nih.gov/ij/), and from these cell numbers were calculated by dividing leaf area with cell area.

[3] = tested on: Arabidopsis wild-type plants; assay: Growth of the third leaf under mild osmotic stress (mannitol); conditions: wild-type line, transfer at 9DAS to medium with 25 mM Mannitol
Method: It was opted to study growing plants upon exposure to mild stress, not threatening plant survival but only reducing plant growth by an average of 50%. For loss-of-function analysis, the double erf5/erf6 T-DNA insertion mutant and a wild-type line were grown on control medium until 9DAS and then transferred to growth medium containing 25 mM of the osmoticum Mannitol. Subsequently, upon transfer, growth of the third leaf was measured.
Seedlings were grown in vitro on half-strength Murashige and Skoog medium (Murashige and Skoog 1962) containing 1% sucrose and 6.5 g/L agar at 21° C. under a 16-hour day (110 μmol m^−2 s^−1) and 8-hour night regimen. The growth medium was overlaid with nylon mesh (Prosep, Zaventem, Belgium) of 20 μm pore size to facilitate transfer to induction medium. For expression analysis and growth experiments, 64 resp. 32 seeds were equally distributed on a 15-cm diameter petri dish. […]
Growth analysis was performed on the third true leaf harvested at different time points after transfer to Dex. […] Photographs of leaves and drawings were used to measure leaf area and cell size, respectively, using ImageJ v1.37o (NIH; on the World Wide Web at //rsb.info.nih.gov/ij/), and from these cell numbers were calculated by dividing leaf area with cell area.

| Compound | effect on gene expression [1] | effect on growth [2] | growth of the third leaf [3] |
| --- | --- | --- | --- |
| C[C@@H]1C[C@H]2[C@@H]3CCC4=CC(=O)C=C[C@]4(C)[C@@]3(F)[C@@H](O)C[C@]2(C)[C@@]1(O)C(=O)CO [Dex, Dexamethasone] | no effect | no effect |  |
| OC[C@@H](O)[C@@H](O)[C@H](O)[C@H](O)CO [Mannitol] |  |  | expected growth reduction |

Source: patent US20140344996A1, “METHODS AND MEANS TO PRODUCE ABIOTIC STRESS TOLERANT PLANTS” (VIB VZW, priority 2011, published 2014)
